The results in this text go back to patent US20050215544A1, “Methods of treating HIV infection” (priority 2004, published 2005).

For data set [1], the system named is HIV-1 LAI. The data set is described as follows: microbe, parasite or virus in culture. The protocol:
(§1) Virus and cell lines. The T-cell lines, MT-2 and PM-1 were obtained through the AIDS Research and Reference Reagent Program, NIAID, and were contributed by Dr. D. Richman and Dr. R. Gallo, respectively. Both cell lines were cultured in RPMI 1640 medium supplemented with 10% fetal bovine serum, 2 mM L-glutamine and sub-cultured twice a week. The LAI strain of HIV-1 was obtained from the Fred Hutchinson Cancer Research Center, and the Bal strain was from NIH. Both virus stocks were amplified and titered in MT-2 cells (LAI) and PM-1 cells (Bal) using a virus infectivity assay.
(§2) Drug Susceptibility and Cytotoxicity Assays. For drug susceptibility assays, MT-2 cells were infected with HIV-1 LAI (or PM-1 cells with HIV-1 Bal) at an MOI of 0.005, and seeded into 96-well microtiter plates ([…] cells/ml) containing serial dilutions of test compounds. […] Each drug ratio consisted of an array of 3-fold serial dilutions, and was performed in quadruplicate. The plates were incubated at 37° C./5% CO2. The MT-2 cells infected with HIV-1 LAI were incubated for 5 days. On day-five post-infection, 20 μl from each well was harvested and quantitated by a reverse transcriptase (RT) assay, or in samples involving non-nucleoside RT inhibitors, an MTS assay. The PM-1 cells infected with HIV-1 Bal and used for studying the combinations with CCR5 inhibitors were incubated for six days. On day-six post-infection, 20 μl from each well was harvested, 20- and 50-fold diluted and quantitated by p24 assay. Cytotoxicity assays were performed using uninfected cells, exposed to the same drug combinations, and incubated for six days. Cell viability was determined by an MTS assay. The CC50 values were calculated by using the exponential form of the median effect equation as mentioned below for calculation of EC50.
(§3) In this equation, Fa stands for “fraction affected,” and represents the fraction of the viral load that has been inactivated. […] ED50 is drug concentration that is expected to reduce the amount of virus by 50%, and m is a parameter that reflects the slope of the concentration-response curve.
In carrying out the combination experiments below, the EC50 for Compound 1 and each comparator compound was determined during the course of each study, and used in the subsequent data analysis.

Data set [2] deals with HIV-1 LAI. The data set is described as follows: Two-drug combination antiviral assay with Compound 1 (combination indices, Chou and Rideout). Format: cell-based. Conditions: combination with Compound 1; for Combination Indices at 50% HIV Inhibition (Confidence Interval) / Combination Indices at 75% HIV Inhibition (Confidence Interval) / Combination Indices at 90% HIV Inhibition (Confidence Interval): 95% CI in parenthesis; for Overall Result of two-drug combination: all ratios and inhibition levels. The protocol:
as §1, §2
Analysis of Drug Combination Effects. For determination of CI values, drugs were diluted in a fixed ratio and multiple ratios were analyzed. The drug serial dilutions spanned a range of concentrations near the EC50 value of each compound, so that equivalent antiviral activities could be compared. Concentration-response curves were estimated for each individual drug and every combination using the median-effect equation. The equation was fit using a nonlinear regression routine (Proc Nlin) in PC SAS version 8.01 (SAS Institute Inc., SAS Version 8.01, Cary, NC: SAS Institute Inc., 1990).
as §3
To assess antiviral effects of different drug combination treatments, combination indices (CIs) were calculated according to Chou and Rideout. The combination index was computed as CI=[D]1/[Dm]1+[D]2/[Dm]2
In this equation [Dm]1 and [Dm]2 are the concentrations of drugs that would individually produce a specific level of effect, while [D]1 and [D]2 are the concentrations of drugs in combination that would produce the same level of effect.
Theoretically, additivity is implied if the CI is equal to one, synergy if the CI is less than one, and antagonism if the CI is greater than one. […] At best, we can construct a range that contains the likely values for the CI, given the noise in the data. In this report, these ranges are reported in parentheses next to each point estimate of the CI. […] If the range fell entirely above 1.0, we would infer antagonistic behavior. If the range were to include 1.0, we would infer additivity.

The subject of data set [3] is uninfected cells. Kind of data set: Cytotoxicity assay of the drug combinations in uninfected cells (MTS). Format: cell-based. The settings on record: combination with Compound 1 at highest concentrations tested, six days. The protocol:
Drug Susceptibility and Cytotoxicity Assays. […] Each drug ratio consisted of an array of 3-fold serial dilutions, and was performed in quadruplicate. The plates were incubated at 37° C./5% CO2. […] On day-five post-infection, 20 μl from each well was harvested and quantitated by a reverse transcriptase (RT) assay, or in samples involving non-nucleoside RT inhibitors, an MTS assay. The PM-1 cells infected with HIV-1 Bal and used for studying the combinations with CCR5 inhibitors were incubated for six days. On day-six post-infection, 20 μl from each well was harvested, 20- and 50-fold diluted and quantitated by p24 assay. Cytotoxicity assays were performed using uninfected cells, exposed to the same drug combinations, and incubated for six days. Cell viability was determined by an MTS assay. The CC50 values were calculated by using the exponential form of the median effect equation as mentioned below for calculation of EC50.

Where [4] appears, read: Human immunodeficiency virus 1, MT2, 120 h.
The mark [5] stands for this setting: EC50 ratio 1:1 (Compound 1 to comparator).
The mark [6] stands for this setting: EC50 ratio 1:2.5 (Compound 1 to comparator).
The mark [7] stands for this setting: EC50 ratio 2.5:1 (Compound 1 to comparator).
Where [8] appears, read: MT-2 cells infected with HIV-1 LAI, MOI 0.005, 5 days, single drug.

What is called EC50 is the midpoint of the concentration-response curve.

In the case of `c1cc(CN2CCCNCCNCCCNCC2)ccc1CN1CCCNCCNCCCNCC1` [AMD-3100], the EC50 in data set [1] (setting [4]) amounted to 4 nM. In addition, in data set [2] (setting [5]), the “Combination Indices at 50% HIV Inhibition (Confidence Interval)” value is reported as 0.51 (0.34, 0.69); the “Combination Indices at 75% HIV Inhibition (Confidence Interval)” value is 0.63 (0.33, 0.94); the “Combination Indices at 90% HIV Inhibition (Confidence Interval)” value is given as 0.89 (0.22, 1.57). Further, in data set [2] (setting [6]), the “Combination Indices at 50% HIV Inhibition (Confidence Interval)” value is 0.65 (0.49, 0.80); the “Combination Indices at 75% HIV Inhibition (Confidence Interval)” value is 0.55 (0.37, 0.74); the “Combination Indices at 90% HIV Inhibition (Confidence Interval)” value is 0.58 (0.27, 0.89). Besides, in data set [2] (setting [7]), the “Combination Indices at 50% HIV Inhibition (Confidence Interval)” value is reported as 0.56 (0.38, 0.73); the “Combination Indices at 75% HIV Inhibition (Confidence Interval)” value is 0.62 (0.18, 0.90); the “Combination Indices at 90% HIV Inhibition (Confidence Interval)” value is 0.74 (0.22, 1.26). Further, the “Overall Result of two-drug combination” value in data set [2] was “moderate synergistic”. The “Cytotoxicity of the drug combination” value in data set [3] is given as “No significant cytotoxicity”.
`CON(Cc1ccc(F)cc1)C(=O)C=C(O)C(=O)O` [Compound 2, 3-[(4-Fluorobenzyl)methoxycarbamoyl]-2-hydroxyacrylic acid]: the EC50 in data set [1] (setting [4]) came out at 84 nM. Further, in data set [2] (setting [5]), the “Combination Indices at 50% HIV Inhibition (Confidence Interval)” value is reported as 0.42 (0.32, 0.52); the “Combination Indices at 75% HIV Inhibition (Confidence Interval)” value is recorded as 0.49 (0.33, 0.64); the “Combination Indices at 90% HIV Inhibition (Confidence Interval)” value was 0.57 (0.28, 0.85). In data set [2] (setting [6]), the “Combination Indices at 50% HIV Inhibition (Confidence Interval)” value was 0.38 (0.30, 0.46); the “Combination Indices at 75% HIV Inhibition (Confidence Interval)” value is reported as 0.42 (0.30, 0.55); the “Combination Indices at 90% HIV Inhibition (Confidence Interval)” value is 0.48 (0.26, 0.69). Also, in data set [2] (setting [7]), the “Combination Indices at 50% HIV Inhibition (Confidence Interval)” value is given as 0.46 (0.34, 0.59); the “Combination Indices at 75% HIV Inhibition (Confidence Interval)” value is listed as 0.66 (0.41, 0.92); the “Combination Indices at 90% HIV Inhibition (Confidence Interval)” value is 0.96 (0.37, 1.54). The “Overall Result of two-drug combination” value in data set [2] is listed as “Synergistic”. Besides, in data set [3], the “Cytotoxicity of the drug combination” value is listed as “No significant cytotoxicity”.
As for `Cc1cn([C@H]2C=C[C@@H](CO)O2)c(=O)[nH]c1=O` [Stavudine], in data set [1] (setting [4]), the EC50 amounted to 318 nM. Moreover, in data set [2] (setting [5]), the “Combination Indices at 50% HIV Inhibition (Confidence Interval)” value is 0.25 (0.18, 0.33); the “Combination Indices at 75% HIV Inhibition (Confidence Interval)” value is reported as 0.53 (0.32, 0.74); the “Combination Indices at 90% HIV Inhibition (Confidence Interval)” value is listed as 1.12 (0.38, 1.86). In addition, in data set [2] (setting [6]), the “Combination Indices at 50% HIV Inhibition (Confidence Interval)” value is recorded as 0.14 (0.10, 0.19); the “Combination Indices at 75% HIV Inhibition (Confidence Interval)” value is on record as 0.22 (0.13, 0.32); the “Combination Indices at 90% HIV Inhibition (Confidence Interval)” value was 0.36 (0.10, 0.62). For the same compound, in data set [2] (setting [7]), the “Combination Indices at 50% HIV Inhibition (Confidence Interval)” value is recorded as 0.28 (0.24, 0.32); the “Combination Indices at 75% HIV Inhibition (Confidence Interval)” value is 0.39 (0.32, 0.47); the “Combination Indices at 90% HIV Inhibition (Confidence Interval)” value is on record as 0.55 (0.38, 0.73). The “Overall Result of two-drug combination” value in data set [2] is on record as “Moderate-”.
Regarding `C[C@H](Cn1cnc2c(N)ncnc21)OCP(=O)(O)O` [Tenofovir], the EC50 in data set [1] (setting [8]) was 13 nM. Further, the “Combination Indices at 50% HIV Inhibition (Confidence Interval)” value in data set [2] (setting [5]) was 0.11 (0.09, 0.13); in data set [2] (setting [6]), 0.13 (0.11, 0.15); in data set [2] (setting [7]), 0.16 (0.13, 0.19). In addition, the “Combination Indices at 75% HIV Inhibition (Confidence Interval)” value is 0.22 (0.17, 0.27) in data set [2] (setting [5]); 0.23 (0.18, 0.28) in data set [2] (setting [6]); 0.22 (0.17, 0.28) in data set [2] (setting [7]). In addition, the “Combination Indices at 90% HIV Inhibition (Confidence Interval)” value in data set [2] (setting [5]) is given as 0.54 (0.31, 0.76); in data set [2] (setting [6]), 0.50 (0.30, 0.70); in data set [2] (setting [7]), 0.38 (0.22, 0.54). In addition, in data set [2], the “Overall Result of two-drug combination” value is given as “Synergistic”.
Regarding `Nc1ccn([C@H]2CC[C@@H](CO)O2)c(=O)n1` [Zalcitabine], the EC50 in data set [1] (setting [4]) worked out at 12 nM. In data set [2] (setting [5]), the “Combination Indices at 50% HIV Inhibition (Confidence Interval)” value was 0.19 (0.15, 0.23); the “Combination Indices at 75% HIV Inhibition (Confidence Interval)” value is listed as 0.35 (0.26, 0.45); the “Combination Indices at 90% HIV Inhibition (Confidence Interval)” value is 0.75 (0.40, 1.09). In addition, in data set [2] (setting [6]), the “Combination Indices at 50% HIV Inhibition (Confidence Interval)” value was 0.38 (0.31, 0.45); the “Combination Indices at 75% HIV Inhibition (Confidence Interval)” value is listed as 0.37 (0.28, 0.47); the “Combination Indices at 90% HIV Inhibition (Confidence Interval)” value is 0.42 (0.24, 0.61). For the same compound, in data set [2] (setting [7]), the “Combination Indices at 50% HIV Inhibition (Confidence Interval)” value is on record as 0.22 (0.18, 0.25); the “Combination Indices at 75% HIV Inhibition (Confidence Interval)” value is recorded as 0.28 (0.22, 0.34); the “Combination Indices at 90% HIV Inhibition (Confidence Interval)” value is listed as 0.38 (0.24, 0.52). Moreover, the “Overall Result of two-drug combination” value in data set [2] was “Synergistic”.
For enfuvirtide, the EC50 in data set [1] (setting [8]) came to 6 nM. Also, the “Combination Indices at 50% HIV Inhibition (Confidence Interval)” value is listed as 0.17 (0.13, 0.21) in data set [2] (setting [5]); 0.14 (0.11, 0.18) in data set [2] (setting [6]); 0.26 (0.21, 0.31) in data set [2] (setting [7]). Further, the “Combination Indices at 75% HIV Inhibition (Confidence Interval)” value in data set [2] (setting [5]) was 0.42 (0.29, 0.55); in data set [2] (setting [6]), 0.30 (0.21, 0.39); in data set [2] (setting [7]), 0.46 (0.34, 0.58). For the same compound, the “Combination Indices at 90% HIV Inhibition (Confidence Interval)” value in data set [2] (setting [5]) is 1.03 (0.49, 1.58); in data set [2] (setting [6]), 0.65 (0.32, 0.97); in data set [2] (setting [7]), 0.82 (0.46, 1.18). In addition, the “Overall Result of two-drug combination” value is listed as “Moderate-” in data set [2] and “moderate synergistic” in data set [2] (listed as enfuvurtide). For the same compound, the “Cytotoxicity of the drug combination” value in data set [3] is “No significant cytotoxicity”.
